Measurements published in patent publication US20250127778A1, “CANCER IMMUNOTHERAPY COMPOSITION CONTAINING INTERACTION INHIBITOR OF STING AND TRIM29 AS ACTIVE INGREDIENT” (SPARK BIOPHARMA, INC, priority 2021, published 2025).

Experiments:
[1] = tested on: STING subcytokines (IFN-β, IL-6, IL-15, IL-15Rα); assay: qRT-PCR of STING subcytokine gene expression in Raw264.7 cells; format: cell-based, mouse; conditions: time-dependent and concentration-dependent, FIG. 6
Method: In order to confirm whether the oxopiperazine derivatives of Formulas 1 to 6 increase the immune activation efficacy of the STING agonist cGAMP by increasing the amount of STING, the gene expression levels of the STING subcytokine interferon-beta (IFN-β), interleukin-6 (IL-6), interleukin-15 (IL-15), and interleukin-15 receptor alpha (IL-15Rα) were confirmed through quantitative real-time PCR (qRT-PCR) experiments.
Specifically, Raw264.7 cells were seeded in a transparent 12-well plate and cultured for one day. Thereafter, the cells were treated with cGAMP and the oxopiperazine derivatives of Formulas 1 to 6, respectively, and then cultured for six hours. Finally, after the supernatant culture medium of the cells was removed, the remaining supernatant was diluted with PBS (phosphate buffer saline) and removed to prepare qRT-PCR samples. mRNA was extracted from cells by using the RNeasy mini kit of QIAGEN according to the protocol of the manufacturer. After the concentration of RNA was measured by using Nanoview equipment of GE Healthcare, 1 μg RNA was quantified, and complementary DNA (cDNA) was synthesized by using the Accupower cyclescript RT premix dT20 (Bioneer) product according to the protocol of the manufacturer. […] The mixed samples were analyzed by using the StepOne Plus Real-Time PCR system (Applied Biosciences), and the results were plotted by using the Prism 8.0 program.

[2] = tested on: tumor-infiltrating leukocytes (TILs); assay: Flow cytometry of tumor-infiltrating immune cells; format: in vivo, mouse; conditions: combination with cGAMP, FIG. 26
Method: The tumors were extracted after the mice were euthanized with carbon dioxide. The tumor tissues were divided into small pieces with a razor blade, treated with the DMEM solution including 2% horse serum, 0.5 mg/ml of collagenase D, and 40 μg/mL of DNase I for one hour at 37° C., and permeated through a 40-μm filter, thereby being separated into individual cells. Tumor-infiltrating leukocytes (TILs) were separated from the separated cells by percoll concentration-gradient centrifugation, and red blood cells were removed by treatment with red blood cell lysis solution. The obtained cells were redistributed in the FACS solution described above, and FcγRII/III receptors of individual immune cells were neutralized by treatment with the anti-mouse CD16/CD32 Abs (clone 2.4G2) antibody at 4° C. for 10 minutes. The treatment with primary antibodies for individual cell differentiation were performed at 4° C. for 30 minutes. The treated cells were redistributed into a PBS solution after centrifugation and then further centrifuged to remove the supernatant. The cells were fixed by the treatment with 4% paraformaldehyde (PFA) solution at room temperature for 10 minutes, treated with Triton solution (PBS solution including 0.1% BSA and 0.5% Triton-X-100), and centrifuged, and then the supernatant was removed. Cytokine (IFNγ(XMG1.2)-APC, Perforin(S16009A)-PE, granzyme B(QA16A02)-FITC, Biolegend) primary antibodies were treated at room temperature for two hours. Finally, the Triton solution was added, centrifugation was performed, the supernatant was removed, the cells were redistributed into 200 μL of the Triton solution and analyzed by using a FACSCalibur device from BD Bioscience, and the results were quantitatively analyzed by using the FlowJo program from Tree Star, Inc.

[3] = target: T1, STING (Mus musculus, UniProt Q3TBT3); assay: Flow cytometry of intracellular STING in Raw264.7 cells; format: cell-based; design: endogenous in cells; host or cells: Raw264.7; conditions: 24 hours, FIG. 15
T1 sequence (Q3TBT3 1-378): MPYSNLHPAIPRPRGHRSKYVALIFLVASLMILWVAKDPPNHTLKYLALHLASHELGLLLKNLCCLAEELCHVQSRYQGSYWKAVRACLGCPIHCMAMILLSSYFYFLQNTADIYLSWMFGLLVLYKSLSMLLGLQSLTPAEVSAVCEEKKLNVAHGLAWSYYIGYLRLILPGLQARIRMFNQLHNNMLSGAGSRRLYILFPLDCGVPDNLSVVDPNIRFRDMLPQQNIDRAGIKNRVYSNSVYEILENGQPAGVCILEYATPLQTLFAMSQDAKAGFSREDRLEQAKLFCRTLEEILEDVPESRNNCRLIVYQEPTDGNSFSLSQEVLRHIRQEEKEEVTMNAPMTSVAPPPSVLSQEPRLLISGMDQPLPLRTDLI
Method: It was verified whether the oxopiperazine derivatives increased the efficacy of STING agonists and other cancer immunotherapy, including immune checkpoint inhibitors. First, it was verified through flow cytometry and Western blotting whether the oxopiperazine derivatives increase the amount of STING.
To measure the intracellular amount of STING through flow cytometry, Raw264.7 cells were seeded in a transparent 6-well plate and cultured for one day. Thereafter, the cells were treated with a solution, in which the compound of Formula 1 is diluted in a culture medium without FBS, and cultured for 24 hours. […] After centrifugation of the collected cells, the supernatant was removed, the cells were redistributed in FACS solution (Hank's balanced salt solution (HBSS) including 2% horse serum and 0.05% NaN3), and the number of cells was measured. […] Finally, the Triton solution was added, centrifugation was performed, the supernatant was removed, the cells were redistributed into 200 μL of the Triton solution and analyzed by using a FACSCalibur instrument from BD Bioscience, and the results were quantitatively analyzed by using the FlowJo program from Tree Star, Inc.

## COc1ccc(CC2=CN(c3ccc(C(=O)NC[C@H]4CCCO4)cc3[N+](=O)[O-])[C@H](C(C)C)C(=O)N2Cc2ccc(O)cc2)cc1 [Formula 1, 4-((R)-4-(4-hydroxybenzyl)-2-isopropyl-5-(4-methoxybenzyl)-3-oxo-3,4-dihydropyrazin-1 (2H)-yl)-3-nitro-N-(((R)-tetrahydrofuran-2-yl)methyl)benzamide]
[1]
  expression of IL-15 and IL-15Rα: increased
[2]; ratio of CD45+ cells
  infiltration of total T cells and cytotoxic T cells into the tumor: increased
[2]
  activity of infiltrated cytotoxic T cells (TNF-α, granzyme B, Perforin): increased
  total ratio of myeloid-derived suppressor cells (MDSC): decreased
[3]
  fluorescence labeling intensity of intracellular STING: increased in a concentration-dependent manner
